Biological target: Lysine-specific histone demethylase 1A (Homo sapiens, UniProt O60341)
Experiment: In Vitro Enzyme Inhibition Assay - LSD-1

`CN(C)C1CCN(c2nc(-c3ccc(C#N)c(F)c3)c(C3=CC4C=NN(C)C4C=C3)c(=O)n2C)CC1` (stereo unspecified) [US10548896, Example 72] gave an IC50 of under 100 nM.
